{"source": "patent US8263593B2", "about": "“Therapeutic compounds” (Allergan, Inc., priority 2008, dated 2012)", "test_system": "lashes and adjacent hairs", "test": "Observation of lashes and adjacent hairs in glaucoma patients treated in one eye", "assay_type": "in vivo", "from_the_text": "In the course of treating patients having glaucoma, treatment may only be appropriate in one eye. […] The lash appearance on the lids of the treated eyes would have appeared quite attractive if it represented a bilateral phenomenon. As a result of its asymmetric nature, the long lashes on one side could be construed as disturbing from a cosmetic standpoint. A systemic examination was preformed as a result of the asymmetric phenomenon. It soon became apparent that this altered appearance was not an isolated finding. […] Definite differences could be identified to varying degrees in the lashes and adjacent hairs of all patients who were taking the drug on a unilateral basis for longer than 6 months.\nThe changes in the lashes were apparent on gross inspection in several patients once attention was focused on the issue. In those with light colored hair and lashes, the differences were only seen easily with the aid of the high magnification and lighting capabilities of the slit lamp biomicroscope. In the course of glaucoma follow-up examination, attention is generally immediately focused on the eye itself. As a result of the high power magnification needed only one eye is seen at a time and the eye is seen at a high enough power that the lashes are not in focus. […]", "data": [{"smiles": "CCNC(=O)CCC/C=C\\C[C@@H]1[C@@H](/C=C/[C@@H](O)CCc2ccccc2)[C@H](O)C[C@@H]1O", "note": "[bimatoprost]", "values": [{"measurement": "lash appearance in the treated eye versus the non-treated eye", "setting": "glaucoma patient treated in one eye only", "value": "longer, thicker, and fuller"}, {"measurement": "hair growth in treated versus control areas, multiple parameters of hair appearance", "setting": "many subjects, unilateral treatment", "value": "hair growth is stimulated"}]}]}
